Test results taken from patent publication US6599900B2, “1-oxa-3,9-diaza-spiro[5,5]undecan-2-ones” (Syntex (U.S.A.) LLC, priority 2001, dated 2003).
Where a name gives a salt, the structure may show the parent alone.

Molecular target: T1, human NK1 receptor (Homo sapiens, UniProt P25103)
T1 construct: expressed in transfected cells; host or cells: CHO cells infected with the Semliki virus expression system; membrane suspension used
Experiment: [3H]substance P binding at human NK1 receptors in CHO cells
Conditions: affinity to the NK-1 receptor; [3H]substance P 0.6 nM displacement, CHO cell membranes, 60 min at room temperature
Procedure: The affinity of test compounds for the NK1 receptor was evaluated at human NK1 receptors in CHO cells infected with the human NK1 receptor (using the Semliki virus expression system) and radiolabelled with [^3H]substance P (final concentration 0.6 nM). Binding assays were performed in HEPES buffer (50 mM, pH 7.4) containing BSA (0.04%) leupeptin (8 μg/ml), MnCl2 (3 mM) and phosphoramidon (2 μM). Binding assays consisted of 250 μl of membrane suspension (1.25×10^5 cells/assay tube), […] of buffer of displacing agent and 125 μl of [^3H]substance P. Displacement curves were determined with at least seven concentrations of the compound. The assay tubes were incubated for 60 min at room temperature after which time the tube contents were rapidly filtered under vacuum through GF/C filters presoaked for 60 min with PEI (0.3%) with 2×2 ml washes of HEPES buffer (50 mM, pH 7.4). The radioactivity retained on the filters was measured by scintillation counting. All assays were performed in triplicate in at least 2 separate experiments.

T1 sequence (P25103 whole entry): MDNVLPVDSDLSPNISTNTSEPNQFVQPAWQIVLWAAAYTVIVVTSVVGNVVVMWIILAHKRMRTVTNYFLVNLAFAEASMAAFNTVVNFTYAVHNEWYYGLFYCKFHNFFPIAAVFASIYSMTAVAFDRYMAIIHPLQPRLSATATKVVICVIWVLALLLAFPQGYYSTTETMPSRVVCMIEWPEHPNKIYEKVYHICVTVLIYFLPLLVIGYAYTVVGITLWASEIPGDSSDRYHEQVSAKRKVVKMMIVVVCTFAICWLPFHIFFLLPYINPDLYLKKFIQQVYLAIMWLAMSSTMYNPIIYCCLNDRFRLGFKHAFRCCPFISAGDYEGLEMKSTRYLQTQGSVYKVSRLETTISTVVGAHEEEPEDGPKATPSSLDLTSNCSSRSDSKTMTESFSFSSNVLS

Ki [nM]	Structure (SMILES)
3.47	CN(C)CCCN1CC(c2ccccc2)C2(CCN(C(=O)c3cc(C(F)(F)F)cc(C(F)(F)F)c3)CC2)OC1=O (stereo not drawn) [Example 25, (5RS)-9-(3,5-bis-trifluoromethyl-benzoyl)-3-(3-dimethylamino-4-yl-propyl)-5-phenyl-1-oxa-3,9-diaza-spiro[5.5]undecan-2-one]
6.31	O=C1OC2(CCN(C(=O)c3cc(C(F)(F)F)cc(C(F)(F)F)c3)CC2)C(c2ccccc2)CN1CCN1CCOCC1 (stereo not drawn) [Example 27, (5RS)-9-(3,5-2is-trifluoromethyl-benzoyl)-3-(2-morpholin-4-yl-ethyl)-5-phenyl-1-oxa-3,9-diaza-spiro[5.5]undecan-2-one hydrochloride]
